Assay results as given in patent US20240383872A1, “NOVEL PYRIDINE AND PYRAZINE COMPOUNDS AS INHIBITORS OF CANNABINOID RECEPTOR 2” (HOFFMANN-LA ROCHE INC., priority 2018, published 2024).

Biological target: human CB2 receptor (CNR2) (Homo sapiens (Human), UniProt P34972)
Assay: Radioligand binding assay, human CB2
Conditions: HEK cell membranes expressing human CNR2, [3H]-CP-55,940 radioligand
Description: The affinity of the compounds of the invention for cannabinoid CB1 receptors was determined using recommended amounts of membrane preparations (PerkinElmer) of human embryonic kidney (HEK) cells expressing the human CNRI or CNR2 receptors in conjunction with 1.5 or 2.6 nM [3H]-CP-55,940 (Perkin Elmer) as radioligand, respectively. Binding was performed in binding buffer (50 mM Tris, 5 mM MgCl2, 2.5 mM EDTA, and 0.5% (wt/vol) fatty acid free BSA, pH 7.4 for CB1 receptor and 50 mM Tris, 5 mM MgCl2, 2.5 mM EGTA, and 0.1% (wt/vol) fatty acid free BSA, pH 7.4 for CB2 receptor) in a total volume of 0.2 ml for 1 h at 30° C. shaking. The reaction was terminated by rapid filtration through microfiltration plates coated with 0.5% polyethylenimine (UniFilter GF/B filter plate; Packard). Bound radioactivity was analyzed for Ki using nonlinear regression analysis (Activity Base, ID Business Solution, Limited), with the Kd values for [3H]CP55,940 determined from saturation experiments. The compounds of formula (I) show an excellent affinity for the CB2 receptor.
The compounds according to formula (I) have an activity in the above assay (Ki) between 0.5 nM and 10 μM. Particular compounds of formula (I) have an activity in the above assay (Ki) between 0.5 nM and 3 μM. Other particular compounds of formula (I) have an activity in the above assay (Ki) between 0.5 nM and 100 nM.

human CB2 receptor (CNR2), sequence (P34972 whole entry): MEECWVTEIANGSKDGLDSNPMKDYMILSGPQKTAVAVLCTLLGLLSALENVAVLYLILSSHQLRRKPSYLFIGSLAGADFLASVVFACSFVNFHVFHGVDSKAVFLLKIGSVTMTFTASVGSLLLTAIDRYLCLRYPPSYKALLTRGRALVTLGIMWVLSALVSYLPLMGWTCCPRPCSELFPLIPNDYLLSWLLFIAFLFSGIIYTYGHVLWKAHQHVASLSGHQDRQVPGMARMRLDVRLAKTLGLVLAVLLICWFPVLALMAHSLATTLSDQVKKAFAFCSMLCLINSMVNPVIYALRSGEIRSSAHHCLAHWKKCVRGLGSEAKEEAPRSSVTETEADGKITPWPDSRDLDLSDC

SMILES: COC1CN(c2ccc(C(=O)N[C@@H](CC(C)C)C(=O)OCF)nc2OCC2CC2)C1 [Example 10, Fluoromethyl N-[6-(cyclopropylmethoxy)-5-(3-methoxyazetidin-1-yl)pyridine-2-carbonyl]-L-leucinate]
- Ki: 336 nM

SMILES: COC1CN(c2ccc(C(=O)N[C@H](COCCCF)CC(C)C)nc2OCC2CC2)C1 [Example 28, 6-(Cyclopropylmethoxy)-N-[(2S)-1-(3-fluoropropoxy)-4-methylpentan-2-yl]-5-(3-methoxyazetidin-1-yl) pyridine-2-carboxamide]
- Ki: 31 nM

SMILES: COC1CN(c2ccc(C(=O)N[C@@H](CC(C)C)C(=O)OCCCF)nc2OCC2CC2)C1 [Example 12, 3-Fluoropropyl N-[6-(cyclopropylmethoxy)-5-(3-methoxyazetidin-1-yl)pyridine-2-carbonyl]-L-leucinate]
- Ki: 46 nM

SMILES: CC(C)[C@@H](COCCCF)NC(=O)c1ccc(N2CCCC2)c(OCC2CC2)n1 [Example 21, 6-(Cyclopropylmethoxy)-N-[(2S)-1-(3-fluoropropoxy)-3-methylbutan-2-yl]-5-(pyrrolidin-1-yl)pyridine-2-carboxamide]
- Ki: 156 nM

SMILES: CCC(CC)(NC(=O)c1ccc(N2CC(C)(F)C2)c(OCC2CC2)n1)C(=O)NCCCF [Example 39, 6-(Cyclopropylmethoxy)-5-(3-fluoro-3-methylazetidin-1-yl)-N-(3-(3-fluoropropylcarbamoyl)pentan-3-yl) picolinamide]
- Ki: 524 nM

SMILES: CC(C)C[C@H](NC(=O)c1ccc(N2CCCC2)c(OCC2CC2)n1)C(=O)OCCCF [Example 15, 3-Fluoropropyl N-[6-(cyclopropylmethoxy)-5-(pyrrolidin-1-yl)pyridine-2-carbonyl]-L-leucinate]
- Ki: 40 nM
